Drawing on PubChem BioAssay (NCI), this text covers TGI and GI50 for 15 compounds.

Some test systems named below: SNB-75 CNS; HOP-92 NSCLC; UACC-257 melanoma; HCT-116 colon; SNB-19 CNS; TK-10 renal; COLO 205 colon; HCT-15 colon; SK-MEL-2 melanoma.
What all share (assay): NCI anticancer screen, dose series, 48 h

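Cells were grown in 96-well plates and exposed to each compound for 48 hours at five concentrations; endpoints were interpolated linearly between bracketing concentrations, or set to the highest concentration if not reached. GI50 is the concentration that inhibits growth by half. TGI is the concentration that stops growth completely.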 Where only a bound is given, the exact number is not on record here.

For `CCOC(=O)c1cc2c3c(c(O)c(OC)c2s1)N(C(=O)c1cc2c4c(c(O)c(OC)c2s1)N(C(C)=O)CC4)CC3`, the TGI in the assay with SNB-75 CNS is 67.1 µM; with HOP-92 NSCLC, more than 100 µM; in the assay with UACC-257 melanoma, more than 100 µM; in the assay on HCT-116 colon, more than 100 µM; with SNB-19 CNS, more than 100 µM; in the assay on TK-10 renal, more than 100 µM. The TGI with COLO 205 colon was more than 100 µM.
On to `Cn1c2c(c3ccccc31)CCN(CCN1CCN(c3cccc(Cl)c3)CC1)C2=O`, for which the TGI in the assay with HOP-92 NSCLC is 77.1 µM; with HCT-15 colon, more than 100 µM; with HCT-116 colon, more than 100 µM; with TK-10 renal it was more than 100 µM; in the assay with COLO 205 colon it was more than 100 µM.
As to `CSC(=S)N/N=C/c1nccc2ccccc12`, the TGI in the assay with SNB-75 CNS is 14 µM; in the assay on HOP-92 NSCLC it was 6.36 µM; in the assay on HCT-15 colon, 40 µM; in the assay with UACC-257 melanoma it was 15.5 µM; in the assay on HCT-116 colon, more than 100 µM; in the assay on SNB-19 CNS, more than 27.1 µM. Besides, the figures for the TGI in the assay on TK-10 renal, with COLO 205 colon and in the assay with SK-MEL-2 melanoma were 62.9 µM, 1.58 µM and 5.89 µM, respectively.
Take `CC(C)(Oc1ccc(/C=C/C(=O)c2ccc(Cl)cc2)cc1)C(=O)Nc1c(Cl)cccc1Cl`: the TGI in the assay with SNB-75 CNS is 97.5 µM; with HOP-92 NSCLC, 91.5 µM; with HCT-15 colon, 29.3 µM; with UACC-257 melanoma, 99.6 µM; in the assay with HCT-116 colon, 18.5 µM; in the assay on SNB-19 CNS it was more than 100 µM. Besides, the results for the TGI with TK-10 renal, with COLO 205 colon and with SK-MEL-2 melanoma were more than 100 µM, 40.2 µM and more than 100 µM, respectively.
As for `O=[N+]([O-])c1ccc(-c2ccc(-c3csc(Nc4ccccc4)n3)o2)cc1`, the TGI in the assay with SNB-75 CNS was more than 56.8 µM; with HOP-92 NSCLC it was 37 µM; in the assay on HCT-15 colon it was 42.5 µM; in the assay on UACC-257 melanoma it was 33.3 µM; in the assay on HCT-116 colon it was 47 µM; in the assay on SNB-19 CNS, more than 65.8 µM. Besides, the values for the TGI with TK-10 renal, in the assay with COLO 205 colon and with SK-MEL-2 melanoma were 33.3 µM, 58.2 µM and 36.4 µM, respectively.
Take `O=[N+]([O-])c1ccc(Sc2c3ccccc3nc3cc(Cl)ccc23)cc1`: the TGI with SNB-75 CNS, in the assay on HOP-92 NSCLC, in the assay with HCT-15 colon, with UACC-257 melanoma, in the assay on HCT-116 colon and in the assay with SNB-19 CNS was more than 100 µM in each case. Also, the TGI in the assay on TK-10 renal, in the assay with COLO 205 colon and in the assay on SK-MEL-2 melanoma was more than 100 µM each time. Further, the GI50 in the assay with HCT-15 colon, with UACC-257 melanoma, in the assay on HCT-116 colon, with SNB-19 CNS, in the assay with TK-10 renal and in the assay on COLO 205 colon was more than 100 µM throughout. Besides, the GI50 in the assay on SK-MEL-2 melanoma is more than 100 µM.
As for `COc1ccc2[nH]c3c(c2c1)[C@H](C)C[C@@H]1C(=O)N(c2ccccc2)C(=O)[C@H]31`, the TGI was 48.1 µM with SNB-75 CNS; 42.6 µM in the assay on HOP-92 NSCLC; more than 100 µM in the assay on HCT-15 colon; more than 100 µM in the assay with UACC-257 melanoma; 38.8 µM in the assay with HCT-116 colon; more than 100 µM with SNB-19 CNS. Also, the TGI in the assay on TK-10 renal, in the assay with COLO 205 colon and in the assay with SK-MEL-2 melanoma was more than 100 µM each time.
In the case of `CN(C)C(=S)/N=c1\ssc(=S)n1Cc1ccncc1`, the TGI in the assay with SNB-75 CNS was 58.5 µM; with HCT-15 colon, 55.1 µM; in the assay on UACC-257 melanoma it was 83.5 µM; in the assay on HCT-116 colon, 47.8 µM; in the assay with SNB-19 CNS, more than 100 µM; in the assay on TK-10 renal it was 80.3 µM. The TGI in the assay on COLO 205 colon was more than 100 µM; with SK-MEL-2 melanoma it was 52.2 µM.
Regarding `CCC(=O)Nc1nc2c(ncn2C2OC(COC(=O)CC)C(OC(=O)CC)C2OC(=O)CC)c(=O)[nH]1` (centres undefined), the TGI in the assay with SNB-75 CNS, with HCT-15 colon, in the assay with UACC-257 melanoma, with HCT-116 colon, in the assay on SNB-19 CNS and with SK-MEL-2 melanoma was more than 100 µM in each case.
`Cc1ccccc1NC(=O)C1C(=O)N(c2ccccc2C)C(=O)/C1=N\NC(N)=S` (centres undefined): the TGI in the assay on SNB-75 CNS, in the assay on HOP-92 NSCLC, in the assay on UACC-257 melanoma, in the assay on HCT-116 colon, in the assay with SNB-19 CNS and in the assay with TK-10 renal was more than 100 µM in each case. In the assay on SK-MEL-2 melanoma, this compound returned a TGI of more than 100 µM.
On to `O=C(O)c1ccc(C2C(=O)N[C@@H]3CCC[C@H]23)cc1` (some centres undefined), for which the TGI with SNB-75 CNS, with HCT-15 colon, with UACC-257 melanoma, with HCT-116 colon, in the assay with SNB-19 CNS and with TK-10 renal was more than 100 µM each time. Besides, the TGI with COLO 205 colon and in the assay on SK-MEL-2 melanoma was more than 100 µM in each case.
`CCOC(=O)NC(=O)c1cn(CCN2CCN(C(=O)CCCCCCCCCCC(=O)N3CCN(CCn4cc(C(=O)NC(=O)OCC)c(=O)[nH]c4=O)CC3)CC2)c(=O)[nH]c1=O`: the TGI with SNB-75 CNS, in the assay with HOP-92 NSCLC, with UACC-257 melanoma, in the assay on HCT-116 colon, in the assay on SNB-19 CNS and with TK-10 renal was more than 100 µM in each case. In addition, the TGI in the assay on COLO 205 colon is more than 100 µM.
With `C=CC(OCC)(OCC)OCC`, the TGI in the assay on SNB-75 CNS was more than 100 µM; in the assay with HOP-92 NSCLC, more than 100 µM; with HCT-15 colon, more than 100 µM; with UACC-257 melanoma, more than 100 µM; with HCT-116 colon, 43.6 µM; in the assay with SNB-19 CNS, more than 100 µM. The TGI with TK-10 renal, with COLO 205 colon and in the assay with SK-MEL-2 melanoma was more than 100 µM each time.
Consider `CSc1nnc(COc2ccc(Cl)cc2)o1`, for which the TGI with SNB-75 CNS, with HCT-15 colon, in the assay on UACC-257 melanoma, in the assay with HCT-116 colon, in the assay on SNB-19 CNS and in the assay on TK-10 renal was more than 100 µM each time. Besides, the TGI with COLO 205 colon was more than 100 µM.
`CCCCN(CCCC)C(=O)/C(CC(=O)c1cccc2ccccc12)=N\NC(=O)c1cc2ccccc2cc1O`: the TGI in the assay on SNB-75 CNS was 92.7 µM; in the assay on HOP-92 NSCLC it was 56.8 µM; in the assay with UACC-257 melanoma it was 52.8 µM; in the assay with HCT-116 colon, 28 µM; with SNB-19 CNS, more than 100 µM; in the assay with TK-10 renal, more than 100 µM. For the same compound, the TGI in the assay with COLO 205 colon was determined as 56.3 µM; with SK-MEL-2 melanoma, 45.7 µM.
